Test results published in PubChem BioAssay AID743402 (Broad Institute, 2014).

System: FRT CFTR-F508del YFP iodide quenching, 24 h
Test: restoration of mutant CFTR halide transport – FRT cells, YFP quenching, cherry-pick, dose response (AID 743402);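 further: compounds act as correctors raising surface CFTR-F508del before acute activation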
[1] = channel opened with forskolin and a potentiator

SMILES: CCC(=O)N1CC2(CCN(Cc3ccc(Cl)cc3)CC2)c2c([nH]c3cc(OC)ccc23)[C@H]1CO
- AC35 [1]: 22.2 µM

SMILES: Cn1c(=O)c(NC2CCCCC2)c2c3c(cccc31)C(=O)c1ccccc1-2
- AC35 [1]: 1.05 µM

SMILES: COc1cccc2c1C(=O)c1c(O)c3c(c(O)c1C2=O)CC(O)(C(C)=O)CC3OC1CC(N(C)C)C(O)C(C)O1 (stereo not drawn)
- AC35 [1]: 1.03 µM

SMILES: COc1ccc([C@H]2CC(=O)C=C(c3ccc(OC)cc3OC)C2)cc1
- AC35 [1]: 25 µM

SMILES: COc1ccc(OC)c(Nc2nc(-c3sc(NC(=O)C(C)(C)C)nc3C)cs2)c1
- AC35 [1]: 0.908 µM

SMILES: C[C@@H]1CN([C@@H](C)CO)C(=O)Cc2cc(NC(=O)Nc3cccc4ccccc34)ccc2O[C@@H]1CN(C)Cc1ccc(Cl)c(Cl)c1
- AC35 [1]: 22.4 µM

SMILES: O=C1c2cccc3c(O)ccc(c23)C(=O)N1Cc1ccco1
- AC35 [1]: 2.65 µM

SMILES: N#C/C(=C/c1ccc(N2CCCCC2)o1)C(=O)Nc1ccc2ccccc2c1
- AC35 [1]: 2.37 µM

SMILES: CC(=O)Oc1ccc(N2C(=O)c3cccc4c([N+](=O)[O-])ccc(c34)C2=O)cc1
- AC35 [1]: 8.38 µM

SMILES: CCN1C(=O)c2cccc3c(N)ccc(c23)C1=O
- AC35 [1]: 2.83 µM

SMILES: COc1ccc(C(=O)NCCN(C)C)c2nc3ccccc3cc12
- AC35 [1]: 25.7 µM

SMILES: O=c1ccc2[n+]([O-])c3ccc(O)cc3oc-2c1
- AC35 [1]: 10.9 µM

SMILES: N#CC(C#N)=C1C=C2C=C(N3CCCCCC3)CCC2CC1 (stereo not drawn)
- AC35 [1]: 0.0871 µM

SMILES: CC1(C)OC(c2ccccc2)=C/C(=C/C=C2C(=O)NC(=S)NC2=O)O1
- AC35: 3.34 µM

SMILES: O=C(Cc1ccccc1)N1CC(=O)N2[C@H](C1)[C@@H](c1ccc(C#Cc3ccccc3)cc1)[C@@H]2CO
- AC35 [1]: 21.3 µM

SMILES: Cc1cc(C)c(/C=C2\C(=O)Nc3ccccc32)[nH]1
- AC35 [1]: 3.24 µM

SMILES: O=C(C1CCCC1)N1CC(=O)N2[C@H](CO)[C@@H](c3ccc(-c4ccccc4F)cc3)[C@@H]2C1
- AC35 [1]: 22.2 µM

SMILES: O=C(Nc1cccc(F)c1)N1CCCCN2[C@@H](CO)[C@H](c3ccc(C#CC4CC4)cc3)[C@@H]2C1
- AC35 [1]: 20.8 µM

SMILES: CC(=O)Nc1sc2c(c1-c1nc3ccccc3s1)CN(C(C)C)CC2
- AC35 [1]: 10.7 µM

SMILES: CN1/C(=C\C=C2/SC(=S)N(CC(=O)O)C2=O)C(C)(C)c2ccccc21
- AC35 [1]: 1.37 µM

SMILES: CC(=O)OCCn1c2nc(=O)[nH]c(=O)c-2nc2cc(C)c(C)cc21
- AC35 [1]: 1.37 µM

SMILES: COc1ccc(/C=N/NC(=O)c2cccnc2)cc1CSc1ccccn1
- AC35 [1]: 8.21 µM

SMILES: N#Cc1ccc(-c2ccc(C3[C@@H]4CN(C(=O)C5CCC5)C[C@H]3N4)cc2)cc1 (stereo partly drawn)
- AC35 [1]: 22.1 µM

SMILES: C[C@@H]1CCCCO[C@H](CN(C)Cc2ccc(Cl)c(Cl)c2)[C@@H](C)CN([C@@H](C)CO)C(=O)c2cc(NS(=O)(=O)c3ccc(Cl)cc3)ccc2O1
- AC35 [1]: 23.5 µM

SMILES: CC(C)Nc1nc(Nc2ccc(Cl)cc2F)c2sccc2n1
- AC35 [1]: 12.7 µM

SMILES: CC1=C/C(=C\C=C(C#N)C#N)N(C)c2ccccc21
- AC35 [1]: 5.2 µM

SMILES: COc1c(C=O)c2c(c(OC)c1OC)-c1ccc(OC)c(=O)cc1C(NC(C)=O)CC2 (stereo not drawn)
- AC35 [1]: 20.9 µM

SMILES: O=C1c2cccc3c([N+](=O)[O-])ccc(c23)C(=O)N1Cc1cccnc1
- AC35 [1]: 9.18 µM
